Reference: patent US4459304A, “Combating pests with 2-anilino-3,5-dinitro-benzotrifluorides” (Bayer Aktiengesellschaft, priority 1977, dated 1984)

Experiments:
Assay type in all cases: in vivo
[1] = test system: two-spotted spider mite (Tetranychus urticae); assay: Tetranychus test (resistant), degree of destruction of spider mites on bean plants; settings: 48 h, after 2 days; for mortality at 0.0001 %: active compound concentration 0.0001%; for mortality at 0.001 %: active compound concentration 0.001%
Experimental: (§1) Solvent: 3 parts by weight of dimethylformamide
(§2) Emulsifier: 1 part by weight of alkylaryl polyglycol ether
To produce a suitable preparation of active compound, 1 part by weight of the active compound was mixed with the stated amount of solvent and the stated amount of emulsifier and the concentrate was diluted with water to the desired concentration.
Bean plants (Phaseolus vulgaris) which were heavily infested with the two-spotted spider mite (Tetranychus urticae) in all stages of development were sprayed with the preparation of the active compound until dripping wet.
After the specified periods of time, the degree of destruction was determined as a percentage: 100% meant that all of the spider mites were killed whereas 0% meant that none of the spider mites were killed.

[2] = test system: Laphygma exempta (eggs); assay: Development-inhibiting action, Laphygma exempta (eggs); settings: concentration 10 ppm, up to larvae of third stage
Description: (§3) Examples 8 and 9, which are given below, show the arthropod development-inhibiting action of the compounds according to the invention without implying a limitation in respect of the breadth of action of these compounds. In the experiments, the morphological changes, such as half-pupated insects, incompletely slipped larvae or caterpillars, defective wings, pupal cuticula in the case of imagos and the like are rated as malformations over the entire stated development of the test insects. The sum of the morphological malformations, together with the insects killed during the sloughing or the metamorphosis, is given in percent of the test insects.
Test insect: Laphygma exempta (eggs)
Solvent: 10 parts by weight of acetone
as §2
To produce a suitable preparation of active compound, 2 parts by weight of active compound were mixed with the stated amount of solvent, emulsifier and sufficient water to produce a 1% strength mixture, which was diluted with water to the desired concentration.
Deposited eggs, at the rate of 30 eggs on a filter-paper, were moistened with 1 ml of active compound solution of the stated concentration in ppm (parts per million) and were observed, in plastic boxes, until the young larvae slipped. The young larvae were fed with corn leaves which had been sprayed with the stated concentration of active compound solution on the same day as the eggs.
The development of the test insects was observed up to the larvae of the third stage.
As a control, deposited eggs were treated in the same manner with solvent and emulsifier of the corresponding concentration, and feeding was carried out with corn leaves.

[3] = test system: Ceratitis capitata (eggs); assay: Development-inhibiting action, Ceratitis capitata (eggs); settings: concentration 10 ppm in synthetic feed, eggs until flies slipped
Description: as §3
Test insect: Ceratitis capitata (eggs), 20 specimens
Feed: Synthetic feed (carrot powder with yeast powder)
Solvent: 20 parts by weight of acetone
Emulsifier: 5 parts by weight of alkylaryl polyglycol ether
To produce a suitable preparation of active compound, 4 parts by weight of active compound were mixed with the stated amount of solvent, emulsifier and sufficient water to produce a 1% strength mixture which was diluted with water to the desired concentration.
The eggs of the test insects were placed on a dish with synthetic feed, into which the selected concentration of the active compound mixture was incorporated so that the stated amount of active compound in ppm (parts per million) was obtained. The development was observed until the flies slipped.
As a control, synthetic feed mixed only with solvent and emulsifier of the stated concentration was presented.

[4] = test system: mustard beetle larvae (Phaedon cochleariae); assay: Phaedon larvae test, degree of destruction on cabbage leaves; settings: 72 h, after 3 days; for mortality at 0.001 %: active compound concentration 0.001%; for mortality at 0.01 %: active compound concentration 0.01%
Experimental: as §1
Emulsifier: 1 part by weight of alkylarly polyglycol ether
To produce a suitable preparation of active compound, 1 part by weight of the active compound was mixed with the stated amount of solvent containing the stated amount of emulsifier and the concentrate was diluted with water to the desired concentration.
Cabbage leaves (Brassica oleracea) were sprayed with the preparation of the active compound until dripping wet and were then infested with mustard beetle larvae (Phaedon cochleariae).
After the specified periods of time, the degree of destruction was determined in %: 100% meant that all of the beetle larvae had been killed whereas 0% meant that none of the beetle larvae had been killed.

SMILES | mortality at 0.0001 % [1] | mortality at 0.001 % [1] | inhibition at 10 ppm [2] | inhibition at 10 ppm [3] | mortality at 0.001 % [4] | mortality at 0.01 % [4]
CSc1ccc(Nc2c([N+](=O)[O-])cc([N+](=O)[O-])cc2C(F)(F)F)c(C(F)(F)F)c1 [Compound 10] | 50% | 98% | – | – | – | –
O=[N+]([O-])c1cc([N+](=O)[O-])c(Nc2ccc(OC(F)(F)F)c(Cl)c2)c(C(F)(F)F)c1 [Compound 9] | 100% | 100% | 100% | 100% | – | –
O=[N+]([O-])c1cc([N+](=O)[O-])c(Nc2cc(Cl)ccc2Cl)c(C(F)(F)F)c1 [B, reference compound] | – | – | – | – | 0% | 100%
O=[N+]([O-])c1cc([N+](=O)[O-])c(Nc2c(Cl)cccc2Cl)c(C(F)(F)F)c1 [A, reference compound] | 0% | 98% | 20% | – | – | –
O=[N+]([O-])c1cc([N+](=O)[O-])c(Nc2cc(SC(F)(F)F)ccc2Cl)c(C(F)(F)F)c1 [Compound 22] | – | 100% | – | – | – | –
O=[N+]([O-])c1cc([N+](=O)[O-])c(Nc2ccc(OC(F)(F)F)cc2)c(C(F)(F)F)c1 [Compound 1, 2-(4-trifluoromethoxy-anilino)-3,5-dinitro-benzotrifluoride] | 70% | 100% | – | 100% | – | –
O=[N+]([O-])c1cc([N+](=O)[O-])c(Nc2cccc(SC(F)(F)F)c2)c(C(F)(F)F)c1 [Compound 25] | 95% | 100% | – | – | – | –
O=[N+]([O-])c1cc([N+](=O)[O-])c(Nc2ccc(S(=O)(=O)C(F)(F)F)cc2Cl)c(C(F)(F)F)c1 [Compound 7] | – | – | – | 100% | – | –
O=[N+]([O-])c1cc([N+](=O)[O-])c(Nc2ccccc2SC(F)(F)F)c(C(F)(F)F)c1 [Compound 21] | 50% | 100% | – | – | – | –
O=[N+]([O-])c1cc([N+](=O)[O-])c(Nc2cc(S(=O)(=O)C(F)(F)F)ccc2Cl)c(C(F)(F)F)c1 [Compound 14] | – | – | – | – | 80% | 100%
O=[N+]([O-])c1cc([N+](=O)[O-])c(Nc2c(Cl)cc(S(=O)(=O)C(F)(F)F)cc2Cl)c(C(F)(F)F)c1 [Compound 8] | – | – | – | 100% | – | –
O=[N+]([O-])c1cc([N+](=O)[O-])c(Nc2cccc(OC(F)(F)F)c2)c(C(F)(F)F)c1 [Compound 24] | 95% | 100% | – | – | – | –
O=[N+]([O-])c1cc([N+](=O)[O-])c(Nc2ccc(SC(F)(F)F)cc2)c(C(F)(F)F)c1 [Compound 4] | 99% | 100% | – | – | 50% | 100%
O=[N+]([O-])c1cc([N+](=O)[O-])c(Nc2ccc3c(c2)C(F)(F)OC(F)(F)O3)c(C(F)(F)F)c1 [Compound 2] | 100% | 100% | – | – | – | –
O=[N+]([O-])c1cc([N+](=O)[O-])c(Nc2ccc(OC(F)(F)F)cc2Cl)c(C(F)(F)F)c1 [Compound 13, 2-(2-chloro-4-trifluoromethoxy-anilino)-3,5-dinitro-benzotrifluoride] | 100% | 100% | 100% | 100% | 85% | 100%
